Experimental findings from PMC6770071, “XIAP as a Target of New Small Organic Natural Molecules Inducing Human Cancer Cell Death” (Cancers, 2019) are described below.

In one assay the test system is U373 cells. The assay can be described thus: MTT cell viability assay, U373 cells. In kind it is cell-based, human. The following applies: for IC50: Homo sapiens, U373 MG, MTT, 24 h, read-out: IC50 (μg/mL) U373 Cells. The procedure: (§1) Human U373 glioma, MCF7 breast cancer, A549 lung cancer and PC-3 prostate cancer cells were grown in Dulbecco’s Modified Eagle Medium (DMEM), supplemented with 10% foetal bovine serum, 2 mM glutamine, 100 U/mL penicillin/streptomycin, at 37 °C in a humidified atmosphere containing 5% CO2 (logarithmic growth phase, routine passages every 3 days). The human breast epithelial cell line MCF10 was cultured in DMEM/F12 Ham’s Mixture supplemented with 5% horse serum, epithelial growth factor 20 ng/mL, insulin 10 μg/mL, hydrocortisone 0.5 mg/mL, cholera toxin 100 ng/mL, and 100 U/mL penicillin/streptomycin. HUVEC were grown in EGM-2 Endothelial Cell Growth Medium-2 BulletKit (Lonza, Basel, Switzerland), according to the manufacturer’s protocol.
(§2) U373, MCF7, A549, PC-3, HUVEC, and MCF10 cell viability was determined by MTT assay using published protocols. MTT absorbance was quantified spectrophotometrically using a Glomax Multi Detection System microplate reader (Promega, Milano, Italy).
(§3) Statistical significance of raw data between the groups in each experiment was evaluated using unpaired Student’s t-test (single comparisons) or one-way ANOVA followed by the Newman-Keuls post-test (multiple comparisons). The IC50 and Emax concentration were determined by non-linear regression curve analysis of the concentration-effect responses. Potency values among concentration-response curves were compared with the F-test. Data belonging from different experiments were represented and averaged in the same graph. The GraphPad Prism software package (GraphPad Software, San Diego, CA, USA) was used. The results were expressed as means ± standard error of mean (SEM) of the indicated n values.
A general note: Tetrazolium dyes change colour on reduction, which living cells bring about.

Assay [1] deals with MCF7 cells. The assay can be described thus: MTT cell viability assay, MCF7 cells. It is filed as cell-based, human. To be noted: for IC50: Homo sapiens, MTT; for loss of cell viability (MTT) with simultaneous 50 µM Z-VAD-(OMe)-FMK: MCF7, 6 h, gibbilimbol B/eriopodol A 30 µg/mL, erioquinol 10 µg/mL. Here is the method:
as §1, §2, §3

The next assay concerns A549 cells. The assay can be described thus: MTT cell viability assay, A549 lung cancer cells. In kind it is cell-based. To be noted: Homo sapiens, 24 h. Here is the method: as §1, with “HUVEC were grown in EGM-2 Endothelial Cell Growth Medium-2 BulletKit (Lonza, Basel, Switzerland), according to the manufacturer’s protocol.” left out
as §2
(§4) Statistical significance of raw data between the groups in each experiment was evaluated using unpaired Student’s t-test (single comparisons) or one-way ANOVA followed by the Newman-Keuls post-test (multiple comparisons). The IC50 and Emax concentration were determined by non-linear regression curve analysis of the concentration-effect responses. […] The results were expressed as means ± standard error of mean (SEM) of the indicated n values.

Another assay relates to PC-3 cells. The assay can be described thus: MTT cell viability assay, PC-3 prostate cancer cells. In kind it is cell-based. The following applies: Homo sapiens, 24 h. The procedure: as §1, with “HUVEC were grown in EGM-2 Endothelial Cell Growth Medium-2 BulletKit (Lonza, Basel, Switzerland), according to the manufacturer’s protocol.” left out
as §2, §4

The subject of assay [2] is MCF7 cells. The assay can be described thus: ROS detection with DCFH-DA, MCF7 cells. It is filed as cell-based, human. The following applies: MCF7, 6 h; gibbilimbol B/eriopodol A 30 µg/mL, erioquinol 10 µg/mL. The procedure:
MCF7 or U373 cells cultured in 120-mm coverslips were exposed to 30 µM DCFH-DA (0.1 M PB, pH 7.4) and fixed in 4% paraformaldehyde for 20 min. For fluorescence detection, coverslips were mounted on glass slides and observed with a laser-scanning confocal microscope (TCS SP8 System and Application suite X, Leica Microsystems). DAPI and fluorescein phalloidin (nuclei and cytoskeleton detection, respectively) staining was also used.

For assay [3], the system named is MCF7 cells. The assay can be described thus: MTT assay and cleaved-caspase 7 western blot in XIAP siRNA-transfected MCF7 cells treated with compounds. To be noted: MCF7, XIAP siRNA 50 nM 24 h; for toxicity (MTT absorbance) after XIAP downregulation: then 6 h, gibbilimbol B/eriopodol A 30 μg/mL, erioquinol 10 μg/mL. It is filed as cell-based, human. Here is the method:
as §2
(§5) Using published protocols, MCF7 and MCF10 cells were homogenised in RIPA lysis buffer, supplemented with a cocktail of protease inhibitors (cOmplete; Roche Diagnostics, Milano, Italy). Equal amounts of proteins were separated by 4–20% SDS-polyacrylamide gel electrophoresis (Criterion TGX Stain-free precast gels and Criterion Cell system; Bio-Rad, Hercules, CA, USA) and transferred onto nitrocellulose membrane using a Bio-Rad Trans-Blot Turbo System. When indicated, the membranes were probed using the rabbit monoclonal anti-cleaved caspase 7 and anti-XIAP (Cell Signaling Technology) primary antibodies. After the incubation with the appropriate horseradish-peroxidase-conjugated secondary antibody (Cell Signaling Technology), bands were visualised using the Clarity Western ECL substrate with a ChemiDoc MP imaging system (Bio-Rad). To monitor for potential artefacts in loading and transfer among samples in different lanes, the blots were routinely treated with the Restore Western Blot Stripping Buffer (ThermoFisher Scientific) and re-probed with the goat anti-Lactate dehydrogenase (LDH)-A (Santa Cruz Biotechnology) and the mouse anti-vinculin primary antibodies. The stain-free gel was used as loading control as well. When appropriated, bands were quantified for densitometry using the Bio-Rad Image Lab software.
Gene silencing of XIAP in MCF7 cells was performed as previously published. Briefly, according to the manufacturer’s protocol, iBONI siRNA Pool (Riboxx, Radebeul, Germany) targeting human XIAP were mixed to Lipofectamine RNAiMax transfection reagent (Life Technologies). iBONI siRNA Pool negative control (Riboxx) (scrambled targeting siRNAs) was also used. The mix was added to cultured MCF7 cells at a siRNA concentration of 50 nM for 24 h.

For the next assay, the system named is XIAP. Kind of assay: XIAP expression by real-time PCR and western blot in MCF7 cells. In kind it is cell-based, human. The following applies: MCF7, increasing times, gibbilimbol B/eriopodol A 30 μg/mL, erioquinol 10 µg/mL; for XIAP mRNA levels: real-time PCR; for XIAP protein levels: western blot.
From the text: as §5
The analysis of mRNA expression was performed as previously described. Briefly, total RNA from MCF7 cells was extracted with the High Pure RNA Isolation Kit (Roche Applied Science, Mannheim, Germany), according to the manufacturer’s protocol. First-strand cDNA was generated from 1 μg of total RNA using iScript Reverse Transcription Supermix (Bio-Rad). Primer pairs (Eurofins Genomics, Milano, Italy) for XIAP (NM_001167; forward ACCGTGCGGTGCTTTAGTT, reverse […]) and β-actin (NM_001101; forward […], reverse CACCTTCTACAAT GAGCTGCGTGTG) were designed to hybridise to unique regions of the appropriate gene sequence. PCR was performed using SsoAdvanced Universal SYBR Green Supermix and the CFX96 Touch Real-Time PCR Detection System (Bio-Rad). The fold change was determined relative to the selected control sample after normalising to β-actin (internal standard) by the formula 2^−ΔΔCT.

In a further assay the test system is caspase 7. Kind of assay: Cleaved-caspase 7 western blot in MCF10 cells. It is filed as cell-based, human. To be noted: MCF10, 6 h; gibbilimbol B/eriopodol A 30 µg/mL, erioquinol 10 µg/mL.
From the text: as §5
Figure S6. Western blot. […]
(In western blotting, separated proteins are transferred to a membrane and probed.)

Setting [4] is: MCF7, 24 h (Table 1), read-out: IC50 (μg/mL) MCF7 Cells.
The mark [5] stands for this setting: MCF7, 6 h exposure (time-response), read-out: IC50.
Where [6] appears, read: MCF7, 12 h exposure (time-response), read-out: IC50.

The structures appear in SMILES notation. Values after ≈ are worked out from the molar mass of the structure shown. Like-named read-outs stand apart in the source and are kept apart here.

In the case of `CCCCCC/C=C\CCC1(O)C=CC(=O)C=C1` [Erioquinol, (Z)-4-(dec-3′-enyl)-4-hydroxycyclohexa-2,5-dien-1-one], the IC50 was determined as 1.78 µg/mL (≈ 7.17 µM) in the assay with U373 cells; 2.63 µg/mL (≈ 10.6 µM) with MCF7 cells [1] (setting [4]); 14.7 µg/mL (≈ 59.3 µM) with MCF7 cells [1] (setting [5]); 4.25 µg/mL (≈ 17.1 µM) in the assay on MCF7 cells [1] (setting [6]); 1.93 µg/mL (≈ 7.77 µM) with MCF7 cells [1] (MCF7, 24 h exposure (time-response), read-out: IC50); 2.65 µg/mL (≈ 10.7 µM) in the assay on A549 cells. The IC50 in the assay with PC-3 cells was determined as 2.21 µg/mL (≈ 8.9 µM). For the same compound, the “concentration-dependent inhibition of MTT absorbance with 50 µM necrostatin-1 and 10 µM ferrostatin-1” value with U373 cells (U373, 24 h, 2 h pre-treatment with inhibitors) is “did not change”; in the assay with MCF7 cells [1] (MCF7, 24 h, 2 h pre-treatment with inhibitors) it was “did not change”. Moreover, the “loss of cell viability (MTT) with simultaneous 50 µM Z-VAD-(OMe)-FMK” value in the assay on MCF7 cells [1] was “did not affect”. The “ROS (DCFH-DA staining)” value with MCF7 cells [2] is “marked accumulation of ROS”. For the same compound, the “toxicity (MTT absorbance) after XIAP downregulation” value in the assay with MCF7 cells [3] is “significantly enhanced the toxicity”. In addition, the “XIAP mRNA levels” value in the assay on XIAP is on record as “did not significantly modify”. Moreover, the XIAP protein levels entry in the assay on XIAP is “did not significantly modify”.
As for `CCCCCC/C=C/CCc1ccc(O)cc1` [Gibbilimbol B, (E)-4-(dec-3′-enyl)phenol], the IC50 in the assay on U373 cells is 16.8 µg/mL (≈ 72.3 µM); with MCF7 cells [1] (setting [4]), 16.4 µg/mL (≈ 70.8 µM); in the assay on MCF7 cells [1] (setting [5]), 20.3 µg/mL (≈ 87.4 µM); with MCF7 cells [1] (setting [6]), 27.4 µg/mL (≈ 118 µM). Besides, the “loss of cell viability (MTT) with simultaneous 50 µM Z-VAD-(OMe)-FMK” value in the assay on MCF7 cells [1] is “significantly inhibited”. Also, in the assay on caspase 7, the “activation of caspase 7” value is given as “activation of caspase 7”. For the same compound, the “ROS (DCFH-DA staining)” value with MCF7 cells [2] was “absent”. Moreover, the “caspase 7 activity after XIAP silencing” value in the assay on MCF7 cells [3] (then 30 μg/mL for 6 h) was “robustly increased”. Besides, the “toxicity (MTT absorbance) after XIAP downregulation” value with MCF7 cells [3] was “significantly enhanced the toxicity”. Moreover, the “XIAP mRNA levels” value with XIAP is given as “did not significantly modify”. Moreover, in the assay on XIAP, the XIAP protein levels result is “did not significantly modify”.
